# Test results reported in publication PMC3253716 (Journal of Enzyme Inhibition and Medicinal Chemistry, 2010).
# “Also recorded” adds a separate entry of the source.
# Experiments:
# [1] = biological target: T1, recombinant mouse acetylcholinesterase (rMAChE) (Mus musculus, UniProt P21836); experiment: Colorimetric; assay type: biochemical; conditions: tested at 50 µM
# T1 sequence (P21836 with tags, fused parts or gaps limits assumed): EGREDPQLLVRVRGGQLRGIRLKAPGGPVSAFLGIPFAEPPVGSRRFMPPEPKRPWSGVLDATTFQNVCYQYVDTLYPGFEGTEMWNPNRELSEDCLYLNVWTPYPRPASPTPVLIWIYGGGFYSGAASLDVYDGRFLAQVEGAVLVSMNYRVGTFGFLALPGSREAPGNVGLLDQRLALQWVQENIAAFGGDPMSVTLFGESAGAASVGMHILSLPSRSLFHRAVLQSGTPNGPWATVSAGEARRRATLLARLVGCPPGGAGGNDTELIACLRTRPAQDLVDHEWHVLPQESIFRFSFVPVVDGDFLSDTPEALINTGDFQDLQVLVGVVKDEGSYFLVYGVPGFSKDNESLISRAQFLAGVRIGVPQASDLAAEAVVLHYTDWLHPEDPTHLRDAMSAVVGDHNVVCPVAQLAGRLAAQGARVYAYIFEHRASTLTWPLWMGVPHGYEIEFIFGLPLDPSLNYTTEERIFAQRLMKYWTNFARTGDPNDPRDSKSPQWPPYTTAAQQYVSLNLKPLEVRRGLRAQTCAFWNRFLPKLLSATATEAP
# [2] = biological target: electric eel acetylcholinesterase (EEAChE) (Electrophorus electricus, UniProt O42275); experiment: Colorimetric; assay type: biochemical; conditions: tested at 50 µM
# electric eel acetylcholinesterase (EEAChE), sequence (O42275 24-633): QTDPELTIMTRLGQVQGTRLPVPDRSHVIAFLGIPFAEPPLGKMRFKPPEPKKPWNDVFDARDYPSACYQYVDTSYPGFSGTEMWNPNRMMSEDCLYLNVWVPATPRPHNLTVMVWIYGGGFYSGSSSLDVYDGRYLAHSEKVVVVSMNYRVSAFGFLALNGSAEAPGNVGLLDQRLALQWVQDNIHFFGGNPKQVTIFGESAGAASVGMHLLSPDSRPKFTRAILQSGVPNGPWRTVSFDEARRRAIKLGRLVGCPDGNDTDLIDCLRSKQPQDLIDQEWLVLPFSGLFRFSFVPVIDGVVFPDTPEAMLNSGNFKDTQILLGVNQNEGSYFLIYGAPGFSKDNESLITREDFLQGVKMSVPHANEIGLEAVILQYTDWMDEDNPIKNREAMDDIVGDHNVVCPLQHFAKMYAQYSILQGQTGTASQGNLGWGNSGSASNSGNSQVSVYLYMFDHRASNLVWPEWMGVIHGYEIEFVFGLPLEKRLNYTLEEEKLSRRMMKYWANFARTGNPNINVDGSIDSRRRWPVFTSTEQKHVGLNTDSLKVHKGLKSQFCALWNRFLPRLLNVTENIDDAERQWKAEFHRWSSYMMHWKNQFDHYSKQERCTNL
# EEAChE [3] = biological target: T2, EEAChE (Electrophorus electricus, UniProt O42275); conditions: Lineweaver–Burk plot
# T2 sequence (O42275 24-633): as above
# EEAChE [4] = biological target: T2, EEAChE; conditions: read-out: IC50 against EEAChE; competitive inhibition; cited from earlier work
compound,measurement,setting,value
"C#CCNC(=O)c1cc2ccc(N(CC)CC)cc2oc1=O [Compound 4, 2H-1-Benzopyran-7-N-diethyl-2-oxo-3-propynylcarboxylamide]",Inhibition of rMAChE (in words),[1],inhibited
same,Inhibition of rMAChE (in words),[1]; listed as diethylaminocoumarin,some inhibitory ability
same,Inhibition of EEAChE (in words),[2],not an inhibitor
"C#CCNS(=O)(=O)c1cccc2c(N(C)C)cccc12 [Compound 1, 5-(Dimethylamino)-N-(-2-propynyl)-1-naphthalenesulfonamide]",Inhibition of rMAChE (in words),[1]; listed as dansyl,not inhibitors; also recorded: inactive
same,Inhibition of EEAChE (in words),[2]; listed as dansyl,not inhibitors; also recorded: inactive
"Xanthylium, 9-[-2-sulfophenyl]-3,6-bis(diethylamino)-4-sulfonamide [Compound 6]",Inhibition of rMAChE (in words),[1],reversibly inactivate
same,Inhibition of rMAChE (in words),[1]; listed as Lissamine,inhibited
same,Type of inhibition,EEAChE [3],mixed-type competitive and noncompetitive inhibition
same,Inhibition of EEAChE (in words),[2],reversibly inactivate
same,Inhibition of EEAChE (in words),[2]; listed as Lissamine,inhibited
"C#CCNC(=O)c1cc2ccc(OC)cc2oc1=O [Compound 5, 2H-1-Benzopyran-7-methoxy-2-oxo-3-N-propynylcarboxylamide]",Inhibition of rMAChE (in words),[1]; listed as methoxycoumarin,not inhibitors; also recorded: inactive
same,Inhibition of EEAChE (in words),[2]; listed as methoxycoumarin,not inhibitors; also recorded: inactive
"C#CCNS(=O)(=O)c1ccc2ccc3cccc4ccc1c2c34 [Compound 2, 1-N-(-2-Propynyl)-pyrenesulfonamide]",Inhibition of rMAChE (in words),[1],inactive
same,Inhibition of EEAChE (in words),[2],inactive
"C#CCNS(=O)(=O)c1ccc(N=Nc2ccc(N(C)C)cc2)cc1 [Compound 3, 4-(4-Dimethylamino-phenylazo)-N-prop-2-ynyl benzenosulfonamide]",Inhibition of rMAChE (in words),[1]; listed as dabsyl,not inhibitors; also recorded: inactive
same,Inhibition of EEAChE (in words),[2]; listed as dabsyl,not inhibitors; also recorded: inactive
"9-[2(or 4)-[[[-[-N-Propynylsulfonamide]-4(or 2)-sulfophenyl]-2,3,6,7,12,13,16,17–octahydro-1H, 5H, 11H, 15H-xantheno[2,3,4-ij:5,6,7i′j′]-diquinolizium-18-inner salt [Compound 7]",Inhibition of rMAChE (in words),[1],reversibly inactivate
same,Inhibition of rMAChE (in words),[1]; listed as Texas Red,inhibited
same,Inhibition of EEAChE (in words),[2],reversibly inactivate
same,Inhibition of EEAChE (in words),[2]; listed as Texas Red,inhibited
c1cc2ccc3cccc4ccc(c1)c2c34 [pyrene],IC50,EEAChE [4],5.22 µM
